Reference: patent US20110098359A1, “Compositions and Methods for Treatment of Glaucoma” (Stellenbosch University, priority 2007, published 2011)

Key:
[1] = Initial trials: oral paracetamol in patients with glaucoma, intra-ocular pressure reduction; format: in vivo, human; conditions: 1000 mg orally 4 to 6 hourly, after 24 to 48 hours
Method: In initial trials, 1000 mg of paracetamol was administered orally 4 to 6 hourly to several patients with glaucoma. In all cases the intra-ocular pressure reduction was in the order of 30% after 24 to 48 hours. This compares well with the pressure lowering effect of currently available commercial preparations.

[2] = Permeability experiments in flow-through diffusion cells across rabbit corneas; format: in vitro ADME; conditions: for steady-state flux values: frozen/thawed rabbit cornea, 20° C.
Excerpt: (§1) Harvested donor comeas, which were deemed unsuitable for transplantation because of infections such as hepatitis B and human immunodeficiency virus (HIV), were obtained from The Eye Bank Foundation of South Africa Observatory from 6 patients (mean age±SD, 35±12 years; range, 24-65 years). In addition, rabbit corneas were obtained from 6 freshly slaughtered rabbits (Country Lane Nursery Farm, Kraaifontein, Cape Town, South Africa). Excised corneas were immediately placed in McCarey-Kaufman solution and transported to a laboratory within 6 hours. The McCarey-Kaufman solution consisted of a stock solution of Medium 199 (Sigma Chemical Company, St. Louis, Mo., U.S.A.) to which sodium bicarbonate, as well as 25 mM of HEPES and 5% dextran, was added before using the solution for the transport of corneal specimens. On arrival in the laboratory, the corneas were hemisected. One half was used immediately, and the other half was snap-frozen in liquid nitrogen and stored at −85° C. for no longer than 6 months before use. At least one piece of corneal tissue from each specimen was placed in formalin and retained for histologic examination.
(§2) Before each permeability experiment, tissue specimens were thawed at room temperature in phosphate buffered saline (PBS, pH 7.4). […]
(§3) Following equilibration, the PBS was removed from the donor compartment and replaced with 1.0 mL of PBS, containing 1 mg/mL (0.1%) paracetamol in PBS at pH 7.4 (w/v) or else 1 mg/mL (0.1%) paracetamol in a commercially available artificial tear gel i.e. Teargel® liquid gel (Restan Laboratories, Bryanston, South Africa). […] Samples were analyzed at the Division of Pharmacology, Faculty of Health Sciences, Stellenbosch University by HPLC with UV detection. The collected fractions were analyzed directly after completion of the respective experiment for their paracetamol content.
(§4) Flux (J) values across membranes were calculated by means of the relationship
(§5) where Q indicates quantity of substance crossing membrane (in ng); A, membrane area exposed (in cm^2); and t, time of exposure (in minutes). […]

[3] = Permeability experiments in flow-through diffusion cells across human corneas; format: in vitro ADME; conditions: for steady-state flux values: frozen/thawed human cornea, 20° C.
Excerpt: as §1, §2, §3, §4, §5

[4] = Corneal penetration experiments (general statement); format: in vitro ADME; conditions: more than 2000 corneal penetration experiments
Method: An ophthalmic solution was made up as follows: 1 mg/ml (0.1%) solution of paracetamol in phosphate buffered saline (pH=7.4) was used for half of the experiments and 1 mg/ml (0.1%) solution of paracetamol in phosphate […]. […] These tests were conducted in the following manner.

[5] = 0.1% paracetamol in Teargel (TG)

steady-state flux values ([2]; 0.1% paracetamol in PBS pH 7.4): 774±30 ng·cm^−2·min^−1
steady-state flux values [2, 5]: 860±39 ng·cm^−2·min^−1
effect of Teargel on the diffusion rate of paracetamol ([2]; across rabbit corneas, Teargel vs PBS, 0.1%): increase the diffusion rate
steady-state flux values ([3]; 0.1% paracetamol in PBS pH 7.4): 870±76 ng·cm^−2·min^−1
steady-state flux values [3, 5]: 860±33 ng·cm^−2·min^−1
effect of Teargel as a soluent on the diffusion rate of paracetamol ([3]; across human corneas, Teargel vs PBS, 0.1%): did not affect the diffusion rate
corneal penetration [4]: does penetrate the cornea well
Structure (SMILES): CC(=O)Nc1ccc(O)cc1 [paracetamol]
intra-ocular pressure reduction [1]: ~30%
